Assay [1] deals with angiogenesis in the mouse cornea. The assay can be described thus: mouse corneal micropocket assay (PAF-induced angiogenesis). It counts as in vivo, mice. An excerpt:
The mouse corneal micropocket assay according to the procedure of B. M. Kenyon et al., “A model of angiogenesis in the mouse cornea,” Invest. Ophthalmol. Vis. Sci. vol. 37, pp. 1625-1632 (1996), was used to test whether LAU-8080 would inhibit angiogenesis.
Mouse corneal micropocket assay: Corneal micropockets were created with a modified von Graefe knife in both eyes of 5- to 6-weeks old mice. Pellets containing vehicle of 0.1% BSA in PBS with 12% polyhydroxyethylmetacrylate (Hydron) were implanted in the corneas at 1 mm from the limbus of the mice for a control. For the PAF experiment, 500 ng cPAF was added to the pellet with vehicle. For the PAF-LAU experiment, mice were implanted with Hydron pellets containing 0.1% BSA in PBS, 500 ng CPAF, and then treated with the PAF antagonist LAU-8080 (30 μg/g body weight), i.p., once a day. Six days later, corneal pictures were taken under the microscope and vessel length and clock hours of circumferential neovascularization were measured.

Assay [2] concerns PAF binding site of the synaptosomal, plasma membrane. Particulars: cited from earlier work.
In assay [3] the test system is middle cerebral artery occlusion and reperfusion. Put plainly: middle cerebral artery occlusion (MCAO) and reperfusion stroke model. It counts as in vivo, mice (C57BL/6). An excerpt: To study the properties of LAU-8080 in an animal model of stroke, the technique of occluding the middle cerebral artery (middle cerebral artery occlusion, “MCAO”) which has been adapted to the mouse was used. The mouse middle cerebral artery occlusion is a well-recognized model of focal stroke as neuronal damage occurs when ischemia-reperfusion damages the brain. Adult male mice (C57BL/6) weighing 22-25 grams were induced to anesthesia with 1/70/30% halothane/nitrous oxide/oxygen, on a temperature controlled blanket. A line of PAF-R deficient mice (PAF receptor Knock-out mice), as described in S. Ishi et al., “Impaired anaphylactic responses with intact sensitivity to endotoxin in mice lacking a platelet-activating factor,” J. Exp. Med., vol. 187, pp. 1779-1788 (1998), was also used. The common carotid and external carotid arteries were exposed and dissected from surrounding tissue; the right external carotid artery was ligated. The right common carotid was temporarily occluded. A small arteriotomy to the external carotid artery was made so the occluding filament was introduced and advanced to the common carotid artery, and redirected into the internal carotid artery. The filament was advanced so that the blunted tip was placed in the anterior cerebral artery and the side of the filament occluded the origin of the middle cerebral artery. The common carotid artery was gently released, restoring blood flow to the carotid system. The wound was inspected for bleeding. All retracting sutures were removed, and the wound was closed. The anesthetic gases were stopped, and the animal was given oxygen until fully awake, then returned to his cage. After 60 minutes of occlusion, animals were reperfused by removal occluding filament. Animals were placed under anesthesia again, the occluding suture was delicately withdrawn from the arterial lumen, restoring blood flow to the territory of the middle cerebral artery. The wound was closed by interrupted silk sutures. The anesthetic gases were stopped, and the animal was given oxygen until fully awake.
The treated animals received a single i.p. injection of LAU-8080 (30 mg/kg) at 1 hour after reperfusion started, and control animals received vehicle injection (2-hydroxypropyl-β-cyclodextrin).
Scores were collected according Bederson's classification: a score of “0” indicates the animal moved freely changing directions. […]
(§1) Volumetric changes in infarcted brain regions in mice after 1 hour MCAO and 24-48 hours reperfusion was obtained by staining brain slices 1 mm thick with 2% 2,3,5-triphenyltetrazolium chloride (TTC). Quantitative analysis of the volume of the infarcted area was obtained by image-analysis.

Assay [4] deals with PAF binding sites of microsomal membranes. To be noted: cited from earlier work.
The test system of assay [5] is middle cerebral artery occlusion and reperfusion. The assay can be described thus: MCAO and reperfusion stroke model in PAF receptor Knock-out mice. It is filed as in vivo, PAF-R deficient mice (PAF receptor Knock-out mice).
Excerpt: To study the properties of LAU-8080 in an animal model of stroke, the technique of occluding the middle cerebral artery (middle cerebral artery occlusion, “MCAO”) which has been adapted to the mouse was used. The mouse middle cerebral artery occlusion is a well-recognized model of focal stroke as neuronal damage occurs when ischemia-reperfusion damages the brain. Adult male mice (C57BL/6) weighing 22-25 grams were induced to anesthesia with 1/70/30% halothane/nitrous oxide/oxygen, on a temperature controlled blanket. A line of PAF-R deficient mice (PAF receptor Knock-out mice), as described in S. Ishi et al., “Impaired anaphylactic responses with intact sensitivity to endotoxin in mice lacking a platelet-activating factor,” J. Exp. Med., vol. 187, pp. 1779-1788 (1998), was also used. The common carotid and external carotid arteries were exposed and dissected from surrounding tissue; the right external carotid artery was ligated. The right common carotid was temporarily occluded. […]
as §1

For the next assay, the system named is photoreceptor cells. The assay can be described thus: light-induced retina damage model (bright light-treated photoreceptors). It counts as in vivo, Sprague-Dawley rats. Particulars: rat, 30 mg/kg i.p. pretreatment. How it is done:
The light-induced retina damage model selectively promotes the killing of photoreceptor cells as it occurs in age-related macular degeneration and retinitis pigmentosa.
Sprague-Dawley rats (150-175 g males) were dark adapted for 3 days. Two hours before light treatment they were injected i.p. with LAU-8080 (30 mg/kg) suspended in a vehicle (cyclo-dextrin) or just vehicle. A third group received no injection. Rats were placed in 5 inch diameter cylindrical lucite tubes which were then placed within an 8-light array of 10 inch diameter fluorescent lights (40 Watt, G.E. cool white; 350 μE/m^2·s; 25 klux) for up to 5 hours. After 10 days in darkness, eyes were collected and prepared for histology. […] The profile of the photoreceptor nuclear layer of the light+vehicle, light+vehicle+LAU-8080, and dark rat retinas were compared. The percent cell loss under each condition was calculated against the dark animal controls.

Take “1-O-alkyl-2-acetyl-sn-glycero-3-phosphocholine [PAF, reference compound]”: in assay [1] (pellet with 500 ng cPAF, 6 days after implantation, versus vehicle pellet), the “angiogenesis (vessel length and clock hours) induced by pellet” value is on record as “strongly induced”.
`COc1ccc(NC(=S)N2CCc3c(sc4c3C(c3ccccc3Cl)=NCc3nnc(C)n3-4)C2)cc1` [LAU-8080, 6-(2-chlorophenyl)-9-[(4-methoxyphenyl)thiocarbamoyl]-1-methyl-7,8,9,10-tetrahydro-4H-pyrido[4′,3′:4,5]thieno[3,2-f]-1,2,4-triazolo[4,3-a]-1,4-diazepine]: the “displacement of PAF” value is “not from the synaptosomal, plasma membrane” in assay [2] and “displace PAF from microsomal membranes” in assay [4]. Further, the “neurological scores (Bederson's classification)” value in assay [3] (30 mg/kg i.p. 1 hour after reperfusion, noticeable 24 hours after reperfusion) is “significative improvement”. Moreover, the infarct volume entry is “significant reduction” in assay [3] (1 hour MCAO and 48 hours reperfusion, injection 1 hour after reperfusion onset, p<0.0026); “small reduction” in assay [5] (PAF receptor Knock-out mice). Further, the survival in assay [3] (1 hour MCAO, single i.p. 30 mg/kg 1 hour after onset of reperfusion, followed-up 14 days, n=20, p<0.04 vs vehicle) is given as 35%; in assay [5] (PAF knock-out mice, injection one hour after reperfusion, p<0.0074), “significative protection”. Further, the “effect of injection at different times during the procedure versus 1 hour after reperfusion” value in assay [3] (MCAO mice) was “did not differ significantly”. The “angiogenesis (vessel length and clock hours of circumferential neovascularization)” value in assay [1] (500 ng cPAF pellet, LAU-8080 30 μg/g body weight i.p. once a day, 6 days, p<0.05) is on record as “significantly reduced”. Moreover, in the assay on photoreceptor cells, the “cell loss in an area near the center of the photodamage region” value is recorded as “complete lack of cell loss”. For the same compound, the “depth of photoreceptor nuclear layer” value with photoreceptor cells is recorded as 12 cells deep.

The values above are taken from US6987105B2, “Synthesis and use of thienotriazolodiazepines” (Board of Supervisors of Louisiana State University And …, priority 2000, dated 2006).
